Assay results published in patent US6407109B1, “Pyrrolyl tetrahydroquinoxalin diones, their production and use in the treatment of diseases” (Abbott Laboratories, priority 1995, dated 2002).

How the values were obtained:
AMPA receptor = assay: Binding of 3H-AMPA to rat cerebral membrane material
Procedure: The pharmacological activity of the compounds I was investigated on isolated membrane material from rat cerebra. For this purpose, the membrane material was treated in the presence of the compounds according to the invention with the radiolabeled substance ^3H-2-amino-3-hydroxy-5-methyl-4-isoxazolepropionic acid (^3H-AMPA), [^3H]-glycine or [^3H]-kainate which bind to specific receptors (AMPA, NMDA or kainate receptors). The radioactivity of the treated membranes was then measured by scintillation counting. It was possible to determine from the bound radioactivity the amounts of bound ^3H-AMPA, [^3H]-glycine or [^3H]-kainate, or in each case the displaced amounts of these radiolabeled substances. […]
To prepare the membrane material, freshly removed rat cerebra were homogenized together with 15 times the volume of a buffer solution A composed of 30 mM tris(hydroxymethyl)methylamine hydrochloride (TRIS-HCl) and 0.5 mM ethylenediaminetetraacetic acid (EDTA), pH 7.4, using an Ultra-Turrax^R. The suspension was centrifuged at 48000 g for 20 min. […] After measurement of the radioactivity of the bound ^3H-AMPA in the membrane material by scintillation counting, the KI was determined by regression analysis of the displacement plots.

| melting point | activity in 3H-AMPA binding relative to the closely related aldehyde (Example 80 in EP 572 852) (AMPA receptor; compared with 1-(ethoxycarbonylmethyl)-7-(3-formyl-1-pyrrolyl)-6-nitroquinoxaline-2,3(1H,4H)-dione) | Ki (AMPA receptor; isolated membrane material from rat cerebra, 3H-AMPA, incubated on ice for 60 min, read-out: kI (dissociation constant, displacement of 3H-AMPA)) | SMILES |
| --- | --- | --- | --- |
| > 300 °C |  |  | CCOC(=O)Cn1c(=O)c(=O)[nH]c2cc([N+](=O)[O-])c(-n3ccc(C(=O)NCc4ccc([N+](=O)[O-])cc4)c3)cc21 |
| 223 °C (dec.) |  |  | CCOC(=O)Cn1c(=O)c(=O)[nH]c2cc([N+](=O)[O-])c(-n3ccc(C(=O)NCc4ccccc4)c3)cc21 [Example 8, 7-(3-Benzylcarbamoyl-1-pyrrolyl)-1-ethoxycarbonylmethyl-6-nitro-quinoxaline-2,3(1H,4H)-dione] |
| > 300 °C |  |  | CCOC(=O)Cn1c(=O)c(=O)[nH]c2cc([N+](=O)[O-])c(-n3ccc(C(=O)NCc4ccncc4)c3)cc21 [Example 11, 1-Ethoxycarbonylmethyl-6-nitro-7-(3-(4-pyridinylmethylcarbamoyl)-1-pyrrolyl)quinoxaline-2,3(1H,4H)-dione] |
| 224 to 227 °C (dec.) |  |  | O=C(O)Cn1c(=O)c(=O)[nH]c2cc([N+](=O)[O-])c(-n3ccc(C(=O)NCCCc4ccccc4)c3)cc21 [Example 21, 1-Carboxymethyl-6-nitro-7-(3-(3-phenylpropylcarbamoyl)-1-pyrrolyl)quinoxaline-2,3(1H,4H)-dione] |

Continued, molecule first:

| SMILES | melting point | activity in 3H-AMPA binding relative to the closely related aldehyde (Example 80 in EP 572 852) (AMPA receptor; compared with 1-(ethoxycarbonylmethyl)-7-(3-formyl-1-pyrrolyl)-6-nitroquinoxaline-2,3(1H,4H)-dione) | Ki (AMPA receptor; isolated membrane material from rat cerebra, 3H-AMPA, incubated on ice for 60 min, read-out: kI (dissociation constant, displacement of 3H-AMPA)) |
| --- | --- | --- | --- |
| O=C(O)Cn1c(=O)c(=O)[nH]c2cc([N+](=O)[O-])c(-n3ccc(C(=O)NCc4ccc([N+](=O)[O-])cc4)c3)cc21 | > 210 °C (dec.) |  |  |
| CCOC(=O)Cn1c(=O)c(=O)[nH]c2cc([N+](=O)[O-])c(-n3ccc(C(=O)O)c3)cc21 [Example 2, 7-(3-Carboxy-1-pyrrolyl)-1-(ethoxycarbonylmethyl)-6-nitroquin-oxaline-2,3(1H,4H)-dione] |  | distinctly more active | < 10 µM |
| CCOC(=O)Cn1c(=O)c(=O)[nH]c2ccc3ccc(-n4ccc(C(=O)O)c4)cc3c21 [Example 3, 9-(3-Carboxy-1-pyrrolyl)-1-(ethoxycarbonylmethyl)benzo[f]-quinoxaline-2,3(1H,4H)-dione] | 292 to 295 °C |  |  |
| O=C(O)Cn1c(=O)c(=O)[nH]c2ccc3c(-n4ccc(C(=O)O)c4)cccc3c21 [Example 15, 1-Carboxymethyl-7-(3-carboxy-1-pyrrolyl)benzo[f]quinoxaline-2,3(1H, 4H)-dione] | > 300 °C |  |  |
| O=C(O)Cn1c(=O)c(=O)[nH]c2cc([N+](=O)[O-])c(-n3ccc(C(=O)N4CCN(CCc5ccccc5)CC4)c3)cc21 [Example 20, 1-Carboxymethyl-6-nitro-7-(3-(4-(2-phenylethyl)-1-piperazinyl-carbonyl)-1-pyrrolyl)quinoxaline-2,3(1H, 4H)-dione] | > 250 °C (dec.) |  |  |
| O=C(O)Cn1c(=O)c(=O)[nH]c2cc([N+](=O)[O-])c(-n3ccc(C(=O)NCc4ccncc4)c3)cc21 [Example 22, 1-Carboxymethyl-6-nitro-7-(3-(4-pyridinylmethylcarbamoyl)-1-pyrrolyl)quinoxaline-2,3(1H,4H)-dione] | > 300 °C |  |  |
